Assay results: PubChem BioAssay AID1195 (EPA DSSTox, 2008)

System: human maximum recommended daily dose, FDA database
Assay: DSSTox (FDAMDD) FDA Maximum (Recommended) Daily Dose Database
Details: hits give low values
Summary of the method: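 MRDD values come from clinical trials with daily oral dosing, usually for 3–12 months, for the average adult, in mg/day converted to mg/kg-bw/day assuming 60 kg. Antineoplastic mg/m2 doses are divided by 37. Activity score maps log10(1/MRDD mmol) onto 1–100.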

[1] = TherapeuticCategory: anti inflammatory
[2] = TherapeuticCategory: sedative, hypnotic
[3] = TherapeuticCategory: diagnostic aid

Question: With `CCN[C@H]1C[C@H](C)S(=O)(=O)c2sc(S(N)(=O)=O)cc21` as the compound, how does the maximum recommended daily dose (mmol/kg-bw/day) (TherapeuticCategory: antiglaucomal agent, carbonic anhydrase inhibitor) read?
Answer: 0.00308

Question: How did the maximum recommended daily dose (mmol/kg-bw/day) [1] turn out when `CC(C(=O)O)c1ccc(C(=O)c2ccccc2)s1` (configuration not stated) was run?
Answer: 0.0384

Question: `CCCC(C)(COC(N)=O)COC(N)=O` was tested. Which maximum recommended daily dose (mmol/kg-bw/day) (TherapeuticCategory: anxiolytic) did it give?
Answer: 0.183

Question: Which maximum recommended daily dose (mmol/kg-bw/day) (TherapeuticCategory: antihypertensive) does the source give for `CC(C)NCC(O)COc1ccc(COCCOC(C)C)cc1` (configuration not stated) here?
Answer: 0.00102

Question: With `CC(C(=O)O)c1ccc(N2CC=CC2)c(Cl)c1` (configuration not stated) as the compound, how does the maximum recommended daily dose (mmol/kg-bw/day) [1] read?
Answer: 0.0528

Question: With `O=C(OC1CC2CCC(C1)[N+]21CCCC1)C(O)(c1ccccc1)c1ccccc1` (configuration not stated) as the compound, how does the maximum recommended daily dose (mmol/kg-bw/day) (TherapeuticCategory: antispasmodic) read?
Answer: 0.000467

Question: How did the maximum recommended daily dose (mmol/kg-bw/day) (TherapeuticCategory: anabolic, antidepressant, serotonin inhibitor) turn out when `CN1CCC(=C2c3ccccc3CCc3sccc32)CC1` was run?
Answer: 0.000169

Question: Which maximum recommended daily dose (mmol/kg-bw/day) (TherapeuticCategory: prothrombogenic vitamin) does the source give for `CC1=CC(=O)c2ccccc2C1=O` here?
Answer: 0.000193

Question: Which maximum recommended daily dose (mmol/kg-bw/day) (TherapeuticCategory: anticholinergic) does the source give for `CC[N+](C)(CC)CCOC(=O)C1c2ccccc2Oc2ccccc21` here?
Answer: 0.0159

Question: `Cc1c(C)c2c(c(C)c1O)CCC(C)(COc1ccc(CC3SC(=O)NC3=O)cc1)O2` (configuration not stated) was tested. Which maximum recommended daily dose (mmol/kg-bw/day) (TherapeuticCategory: antidiabetic) did it give?
Answer: 0.0226

Question: Which maximum recommended daily dose (mmol/kg-bw/day) (TherapeuticCategory: none) does the source give for `Cc1cn([C@H]2C[C@H](O)[C@@H](CO)O2)c(=O)[nH]c1=O` here?
Answer: 0.413

Question: With `OC[C@H]1OC(O)[C@H](O)[C@@H](O)[C@@H]1O` (some centres not stated) as the compound, how does the maximum recommended daily dose (mmol/kg-bw/day) (TherapeuticCategory: fluid and nutrient replenisher) read?
Answer: 0.555

Question: `CCC1(CC)C(=O)NC(=O)NC1=O` was tested. Which maximum recommended daily dose (mmol/kg-bw/day) [2] did it give?
Answer: 0.0543

Question: Which maximum recommended daily dose (mmol/kg-bw/day) (TherapeuticCategory: antitussive, respiratory stimulant) does the source give for `CN(CC(=O)N1CCOCC1)Cc1c(Cl)cccc1NC(=O)c1ccccc1` here?
Answer: 0.0199

Question: `CC[C@H]1OC(=O)[C@H](C)[C@@H](O[C@H]2C[C@@](C)(OC)[C@@H](O)[C@H](C)O2)[C@H](C)[C@@H](O[C@@H]2O[C@H](C)C[C@H](N(C)C)[C@H]2O)[C@](C)(O)C[C@@H](C)C(=O)[C@H](C)[C@@H](O)[C@]1(C)O` was tested. Which maximum recommended daily dose (mmol/kg-bw/day) (TherapeuticCategory: antibacterial) did it give?
Answer: 0.0909

Question: How did the maximum recommended daily dose (mmol/kg-bw/day) [2] turn out when `CC/C=C(\C)C1(CC)C(=O)NC(=O)NC1=O` was run?
Answer: 0.0148

Question: Which maximum recommended daily dose (mmol/kg-bw/day) [3] does the source give for `O=C(O)c1c(Cl)c(Cl)c(Cl)c(Cl)c1-c1c2cc(I)c(=O)c(I)c-2oc2c(I)c(O)c(I)cc12` here?
Answer: 0.00197

Question: For `CN1C(=O)OC(C)(C)C1=O`, which maximum recommended daily dose (mmol/kg-bw/day) (TherapeuticCategory: anticonvulsant) is on record?
Answer: 0.279

Question: With `CNC(=O)c1c(I)c(C(=O)NCC(=O)Nc2c(I)c(C(=O)O)c(I)c(C(=O)NCCO)c2I)c(I)c(N(C)C(C)=O)c1I` as the compound, how does the maximum recommended daily dose (mmol/kg-bw/day) [3] read?
Answer: 0.0788

Question: `Nc1ccn([C@H]2CC[C@@H](CO)O2)c(=O)n1` was tested. Which maximum recommended daily dose (mmol/kg-bw/day) (TherapeuticCategory: antiviral) did it give?
Answer: 0.000178

Question: How did the maximum recommended daily dose (mmol/kg-bw/day) [1] turn out when `COc1ccc2c(c1)c(CC(=O)OCC(=O)O)c(C)n2C(=O)c1ccc(Cl)cc1` was run?
Answer: 0.00721

Question: `CCN(CC)CCc1nc(-c2ccccc2)no1` was tested. Which maximum recommended daily dose (mmol/kg-bw/day) [1] did it give?
Answer: 0.0136
